Laboratory results taken from US11084795B2, “CFTR regulators and methods of use thereof” (The Regents of the University of California, priority 2015, dated 2021).
Entries after “also recorded” stand apart in the source; their conditions may differ. Like-named read-outs stand apart in the source and are kept apart here. Where a SMILES comes first, the peptide text is derived from it. Bridges are numbered along the chain shown (N, C = ends).

Columns and labels:
[1] = target: T1, human wildtype CFTR (Homo sapiens, UniProt P13569); assay: Fluorescence plate reader assay of iodide influx in FRT cells co-expressing CFTR and YFP halide sensor
T1 sequence (P13569 whole entry): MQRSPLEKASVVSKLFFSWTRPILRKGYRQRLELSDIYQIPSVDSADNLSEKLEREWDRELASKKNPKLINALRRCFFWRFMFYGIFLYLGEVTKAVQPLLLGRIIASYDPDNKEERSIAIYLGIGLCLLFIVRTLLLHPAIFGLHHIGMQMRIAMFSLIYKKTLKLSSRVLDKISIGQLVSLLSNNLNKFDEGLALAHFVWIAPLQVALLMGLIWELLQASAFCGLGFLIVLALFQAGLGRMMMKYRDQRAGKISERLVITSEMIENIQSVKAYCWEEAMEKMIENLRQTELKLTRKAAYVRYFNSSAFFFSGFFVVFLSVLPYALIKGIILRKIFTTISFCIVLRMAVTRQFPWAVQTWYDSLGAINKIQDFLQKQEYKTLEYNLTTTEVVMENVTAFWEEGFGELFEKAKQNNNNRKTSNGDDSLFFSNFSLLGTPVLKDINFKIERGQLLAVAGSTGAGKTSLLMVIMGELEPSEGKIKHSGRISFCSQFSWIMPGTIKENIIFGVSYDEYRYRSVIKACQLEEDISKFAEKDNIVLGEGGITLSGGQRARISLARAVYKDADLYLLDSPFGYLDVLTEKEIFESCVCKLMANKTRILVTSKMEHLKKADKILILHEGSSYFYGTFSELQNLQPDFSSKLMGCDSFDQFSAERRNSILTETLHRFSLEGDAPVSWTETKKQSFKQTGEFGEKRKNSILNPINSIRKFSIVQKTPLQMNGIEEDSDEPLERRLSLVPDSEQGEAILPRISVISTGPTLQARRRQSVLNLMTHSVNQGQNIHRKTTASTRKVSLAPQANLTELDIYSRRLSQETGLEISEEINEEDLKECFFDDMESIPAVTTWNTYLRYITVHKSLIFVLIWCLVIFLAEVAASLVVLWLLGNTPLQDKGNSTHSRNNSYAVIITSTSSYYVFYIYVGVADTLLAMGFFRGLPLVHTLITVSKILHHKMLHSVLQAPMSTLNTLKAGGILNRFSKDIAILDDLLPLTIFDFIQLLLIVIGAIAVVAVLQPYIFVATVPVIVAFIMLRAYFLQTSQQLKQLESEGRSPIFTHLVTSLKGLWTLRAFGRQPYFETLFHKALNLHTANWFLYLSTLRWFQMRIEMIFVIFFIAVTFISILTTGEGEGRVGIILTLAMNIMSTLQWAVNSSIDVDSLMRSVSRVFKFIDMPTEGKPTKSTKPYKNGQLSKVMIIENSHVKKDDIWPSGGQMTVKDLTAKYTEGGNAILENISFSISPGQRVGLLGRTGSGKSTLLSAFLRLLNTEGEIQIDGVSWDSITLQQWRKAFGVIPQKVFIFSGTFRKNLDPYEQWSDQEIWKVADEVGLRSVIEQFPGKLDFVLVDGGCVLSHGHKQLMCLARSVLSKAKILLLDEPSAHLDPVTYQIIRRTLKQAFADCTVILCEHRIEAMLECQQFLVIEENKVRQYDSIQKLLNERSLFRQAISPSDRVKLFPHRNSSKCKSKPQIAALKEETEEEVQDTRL

[2] = target: T1, human wildtype CFTR; assay: Short-circuit current (Isc) in FRT cells expressing human wild-type CFTR; settings: for EC50: FRT cells, short-circuit current; for extent of CFTR activation (Isc): forskolin produced little or no further increase in current
[3] = tested on: LGE BALB/c mice; assay: Lacrimal gland excision (LGE) mouse model of aqueous-deficient dry eye; type: in vivo
Description: (§1) To assess corneal epithelial disruption, 5 μL of lissamine green (LG) dye (1%) was applied to the ocular surface of isofluorane-anesthetized mice. Photographs of the eye were taken using a Nikon Digital camera adapted to an Olympus Zoom Stereo Microscope (Olympus, Center Valley, Pa., USA). Each corneal quadrant was scored on a 3-point scale by one blinded, trained observer, with the extent of staining in each quadrant classified as: 0, no staining; 1, sporadic (involving <25% of the total surface) staining; grade 2, diffuse punctate staining (25-75%); and grade 3, coalesced punctate staining (>75%). The total grade is reported as the sum of scores from all four quadrants, ranging from 0 to 12.
A lacrimal gland excision (LGE) model of aqueous-deficient dry eye was adapted from a reported method (30). The extraorbital lacrimal gland was exposed on each side of wild-type female BALB/c mice (7-8 weeks of age) by 3-mm linear skin incisions. Lacrimal ducts were cauterized and the entire gland was removed bilaterally, avoiding facial vessels and nerves. Incisions were each closed with a single interrupted 6-0 silk suture. Orbital lacrimal tissue remained functional. Eyes with reduced corneal sensation (<5% of mice studied), as identified from neurotrophic corneal ulcers within 1 day of LGE, were excluded. Mice were randomized to receive either treatment (in both eyes) with CFTRact-K089 (0.1 nmol) or vehicle. Mice were treated three times daily (8 AM, 2 PM and 8 PM) for 2 weeks starting on Day 1 after LGE. Tear secretion and LG staining were performed immediately prior to, and one hour after the initial dose on day 4, 10 and 14 after LGE.
Lissamine green staining. […] Each corneal quadrant was scored on a 3-point scale by one blinded, trained observer, with the extent of staining in each quadrant classified as: 0, no staining; 1, sporadic (involving <25% of the total surface) staining; grade 2, diffuse punctate staining (25-75%); and grade 3, coalesced punctate staining (≥75%). […]

[4] = Tear film pharmacokinetics (LC/MS of tear washes)
[5] = Ocular toxicity after chronic topical dosing (slit-lamp, lissamine green staining); type: in vivo; settings: chronically treated mice
Description: as §1
as §1, with “Lissamine green staining. To” for “To”, “(≥75%).” for “(>75%).”

[6] = tested on: tear fluid secretion; type: in vivo, mouse
[7] = tested on: CFTR at the ocular surface; assay: Ocular surface potential difference (PD) in living mice; type: in vivo, mouse; settings: wild-type mice; for change in ocular surface PD: 1-10 μM
Description: Open-circuit transepithelial PD were measured continuously in anesthetized mice in response to serial perfusions of different solutions over the ocular surface, as described (21). Mice were anesthetized with Avertin (2,2,2-tribromoethanol, 125 mg/kg intraperitoneal, Sigma-Aldrich, St. Louis, Mo., USA), and core temperature was maintained at 37° C. using a heating pad. Eyes were oriented with the cornea and conjunctiva facing upward and exposed by retracting the eyelid with cross-action forceps. Solutions were isosmolar (320±10 mOsM; compositions provided in ref. 21) and contained 10μ[…] indomethacin to prevent CFTR activation by prostaglandins. The ocular surface was perfused at 6 mL/min through plastic tubing using a multireservoir gravity pinch-valve system (ALA Scientific, Westbury, N.Y., USA) and variable-flow peristaltic pump (medium flow model; Fisher Scientific, Fair Lawn, N.J., USA). A probe catheter was fixed 1 mm above the cornea using a micropositioner and a suction cannula was positioned 3 mm from the orbit. The measuring electrode was in contact to the perfusion catheter and connected to a high-impedance voltmeter (IsoMilivolt Meter; WPI). The reference electrode was grounded via a winged 21-gauge needle filled with isosmolar saline, and inserted subcutaneously in the abdomen. Measuring and reference electrodes consisted of Ag/AgCl with 3 M KCl agar bridges.
An open-circuit potential difference (PD) method developed in our lab was used to evaluate compound activity at the ocular surface in vivo, as depicted in FIG. 3A (21). Cl^− channel function was quantified by measuring PD during continuous perfusion of the ocular surface with a series of solutions that imposed a transepithelial Cl^− gradient and contained various channel agonists and/or inhibitors. The ocular surface was first perfused with isosmolar saline to record the baseline PD. Amiloride was then added to the perfusate, followed by exchange to a low Cl^− solution in which Cl^− with an impermeant anion, gluconate. These maneuvers allow for direct visualization of CFTR activation in response to addition of candidate CFTR activators.
Ocular surface potential difference measurements. Open-circuit transepithelial PD were measured continuously in anesthetized mice in response to serial perfusions of different solutions over the ocular surface, as described (21). Mice were anesthetized with Avertin (2,2,2-tribromoethanol, 125 mg/kg intraperitoneal, Sigma-Aldrich, St. Louis, Mo., USA), and core temperature was maintained at 37° C. using a heating pad. Eyes were oriented with the cornea and conjunctiva facing upward and exposed by retracting the eyelid with cross-action forceps. […]

[8] = Compound accumulation in systemic tissues after 14 days topical dosing; type: in vivo, mouse
[9] = tested on: FRT cells; assay: Alamar Blue cytotoxicity assay in FRT cells; type: cell-based, rat; settings: up to 100 μM, 1 or 24 h
[10] = tested on: loperamide-treated mice; assay: Loperamide-induced mouse model of constipation
[11] = tested on: chronic constipation / IBS-C patients; settings: linaclotide: chronic constipation; lubiprostone: IBS-C; cited from earlier work
[12] = wild-type mice, B074 100 μM, J027 and K089 50 μM, VX-770 10 μM, cholera toxin 0.1 μg/mL, forskolin 20 μM, IBMX 250 μM

Nc1ccc([N+](=O)[O-])cc1-c1nc2cc(Cl)ccc2n(Cc2ccccc2)c1=O [CFTRact-J135, 3-(2-Amino-5-nitrophenyl)-1-benzyl-6-chloroquinoxalin-2(1H)-one]
EC50 [1]: 110 nM | EC50 ([2]; EC50 for CFTR activation, wild-type CFTR): ~300 nM | extent of CFTR activation (Isc) [2]: fully activated CFTR

CCN(CC)c1nc(Nc2ccccc2)nc(OC(C(F)(F)F)C(F)(F)F)n1 [CFTRact-K089]
CFTR activation (% Vmax) ([2]; 100% = 20 μM forskolin): ~50 % Vmax | extent of CFTR activation (Isc) [2]: fully activated CFTR | EC50 ([2]; read-out: EC50 for CFTR activation, wild-type CFTR): ~250 nM | corneal / ocular surface epithelial disruption after LGE ([3]; 0.1 nmol three times daily): fully prevented the corneal epithelial disruption; also recorded: prevented ocular surface epithelial disruption at all time points | tear volume after LGE ([3]; 0.1 nmol topically three times daily): restored tear secretion to basal levels; also recorded: maintained basal tear volume | LG score change ([3]; 12-point scale, by Day 14, 0.1 nmol three times daily): −0.6±0.6 | amount recovered from tear washes at six hours ([4]; 0.1 nmol (2 μL, 50 μM) instilled): 0.011 ± 0.004 pmol | duration of predicted therapeutic tear fluid levels ([4]; 0.1 nmol single dose): therapeutic levels for at least six hours | LG staining of cornea and conjunctiva [5]: no corneal or conjunctival epithelial disruption | ocular toxicity (slit-lamp evaluation) ([5]; topical three times daily, two weeks): no signs of ocular toxicity | tear fluid secretion in CF mice ([6]; CF mice): no effect in CF mice | tear fluid secretion after single topical dose [6, 12]: doubled basal tear secretion for four hours; also recorded: increased tear fluid secretion by approximately two-fold for at least four hours | hyperpolarization in ocular surface potential difference [7]: ~8.5 mV | change in ocular surface PD [7]: large hyperpolarizations | systemic absorption after topical delivery ([8]; topical): without detectable systemic absorption | amount in mouse blood, brain, liver and kidney (limit of detection) ([8]; two weeks of three times per day topical dosing): < 10 fmol | in vitro cytotoxicity [9]: no appreciable in vitro cytotoxicity

Nc1ccc([N+](=O)[O-])cc1-c1nc2cccc3c2n(c1=O)C(c1ccccc1)CO3 (centres unmarked) [Compound 20, 6-(2-Amino-5-nitrophenyl)-3-phenyl-2,3-dihydro-5H-[1,4]oxazino[4,3,2-de]quinoxalin-5-one]
EC50 [1]: > 10000 nM

Fc1ccc2nc3n(Cc4ccccc4)c4ccc(C(F)(F)F)cc4nc-3c2c1 [Compound 22]
EC50 [1]: > 10000 nM

CC(C)Cn1c(=O)n(C)c(=O)c2[nH]cnc21 [IBMX, 3-isobutyl-1-methylxanthine, reference compound]
tear fluid secretion after single topical dose [6, 12]: substantially increased basal tear secretion at 30 min, but these effects were transient and undetectable after 2 hours

CC(C)(C)c1cc(C(C)(C)C)c(NC(=O)c2c[nH]c3ccccc3c2=O)cc1O [VX-770, reference compound]
activity against wild-type CFTR [2]: relatively weak activity | maximal CFTR activation ([2]; wild-type CFTR): 15% | tear fluid secretion after single topical dose [6, 12]: little tear secretion | change in ocular surface PD [7]: minimal changes in ocular surface PD

Cn1c(=O)c(-c2cc([N+](=O)[O-])ccc2N)nc2ccccc21 [inactive chemical analog of CFTRact-J027, reference compound]
efficacy on stool parameters of inactive analog ([10]; loperamide-treated wildtype mice): nor was an inactive chemical analog of CFTRact-J027 effective in wildtype mice

C[C@@H]1NC(=O)[C@@H]2CCCN2C(=O)[C@H](CC(N)=O)NC(=O)[C@@H]2CSSC[C@H](N)C(=O)N[C@H]3CSSC[C@H](NC1=O)C(=O)N[C@@H]([C@@H](C)O)C(=O)NCC(=O)N[C@H](C(=O)N[C@@H](Cc1ccc(O)cc1)C(=O)O)CSSC[C@H](NC(=O)[C@H](Cc1ccc(O)cc1)NC(=O)[C@H](CCC(=O)O)NC3=O)C(=O)N2 [linaclotide, reference compound] (H-CCEYCCNPACTGCY-OH; disulfide 1-6, 2-10, 5-13)
stool output normalization as % of the maximal CFTRact-J027 response ([10]; oral 0.5 mg/kg, loperamide-treated mice): 35% | patients in whom the drug was effective [11]: ~20%

CCCCC(F)(F)[C@@]1(O)CC[C@H]2[C@@H](CC(=O)[C@@H]2CCCCCCC(=O)O)O1 [lubiprostone]
patients in whom the drug was effective [11]: ~13%

cholera toxin [reference compound]
tear fluid secretion after single topical dose ([6]; mouse, in vivo): substantially increased basal tear secretion at 30 min, but these effects were transient and undetectable after 2 hours
